In patent publication US20210213134A1, “THIOL-BASED MULTIVALENT DRUG DELIVERY COMPOSITIONS” (ORPRO THERAPEUTICS, INC., priority 2018, published 2021):

Experiments:
[1] = target: T1, insulin disulfides (heterodimeric insulin) (Homo sapiens, UniProt P01308); assay: single-turnover insulin protein disulfide reduction assay (RP-HPLC of insulin heterodimer peak); assay type: biochemical; conditions: relative GSH:TRX concentrations comparable to the airway, pH 8, FIG. 1
T1 construct: fully disulfide-bonded heterodimeric insulin
T1 sequence (P01308 25-54 limits assumed): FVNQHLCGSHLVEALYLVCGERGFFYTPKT
T1 sequence (P01308 90-110 limits assumed): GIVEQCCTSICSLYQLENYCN
Description: Left side of FIG. 1—polyacrylamide gel electrophoresis of native human thioredoxin-1 (TRX). Lane 1: Molecular weight standards; Lane 2: Oxidized TRX; Lane 3: Oxidized TRX following reaction with dithiothreitol (DTT); Lane 4: Oxidized TRX following reaction with reduced glutathione (GSH); Lane 5: Oxidized TRX following reaction with GSH followed by DTT. Right side of FIG. 1—TRX was oxidized by exposure to ambient air for one week then incubated with either DTT or GSH at pH 8 for 1 hour followed by purification over a size exclusion column to remove unreacted free DTT or GSH after which the TRX was collected and used in a single-turnover insulin protein-disulfide reduction assay. […] After 30 min, 60 min and 120 minutes aliquots were taken and diluted with 0.1% TFA and 17 uM (final) iodoacetic acid and analyzed over RP-HPLC. Absorbance was monitored at 214 nm and the peak area of the insulin heterodimer fraction was determined at each time point to quantify TRX protein disulfide-reducing activity.
C35STRX was oxidized and Lys residues were conjugated to an azido-PEG linker. The conjugated material was then reduced and tested for molecular weight using SDS-PAGE (FIG. 5D) and MALDI-TOF (FIG. 5E) and activity assessed using a single-turnover insulin protein disulfide reduction assay. […]

[2] = inhalation vs. i.v.; cited from earlier work

N[C@@H](CCC(=O)N[C@@H](CS)C(=O)NCC(=O)O)C(=O)O [GSH, reduced glutathione, reference compound]
restoration of insulin disulfide bond reduction activity to oxidized TRX [1]: capable of restoring insulin disulfide bond reduction activity to oxidized TRX

CN[C@H](CC(C)C)C(=O)N[C@H]1C(=O)N[C@@H](CC(N)=O)C(=O)N[C@H]2C(=O)N[C@H]3C(=O)N[C@H](C(=O)N[C@H](C(=O)O)c4cc(O)cc(O)c4-c4cc3ccc4O)[C@H](O)c3ccc(c(Cl)c3)Oc3cc2cc(c3O[C@@H]2O[C@H](CO)[C@@H](O)[C@H](O)[C@H]2O[C@H]2C[C@](C)(N)[C@H](O)[C@H](C)O2)Oc2ccc(cc2Cl)[C@H]1O [vancomycin]
systemic exposure level by inhalation delivery relative to equivalent i.v. [2]: ~50%
